Consider three molecules from patent US20110160223A1, “NMDA Receptor Antagonists for the Treatment of Neuropsychiatric Disorders” (priority 2008, published 2011).

The nature of series [1]: Plasma and brain exposure assessment. The following applies: mouse, ip; for concentration at 30 min: calculated from the brain:plasma ratio determined by LC-MS/MS. Format: in vivo, Mice. As for the experimental part:
Mice were administered a dose of test compound (10 mg/kg by i.p.) and blood and brain tissue samples collected at the indicated times post drug administration (n=3-5). Blood samples were collected in K-EDTA tubes and centrifuged for ten minutes immediately after collection, and the plasma was stored at −80° C. until analysis. Brains were immediately removed from the skull and the meninges and cerebellum removed, rinsed with ice-cold PBS, weighed and then homogenized at 4° C. in 2-3 volumes of 50 mM potassium phosphate buffer (pH 7.4) and stored at −80° C. until analysis. Plasma and brain homogenates were extracted by the addition of 5 volumes of cold acetonitrile, mixed well by vortexing and centrifuged at 4000 rpm for 15 minutes. The supernatant fractions were analyzed by LC-MS/MS operating in multiple reaction monitoring mode (MRM) and analyzed for the parent compound to determine the plasma or brain concentration. Internal standards were added to calibrate each sample. An eight point standard curve was prepared similarly in naïve plasma and brain for each compound of interest. Based on occupancy studies of other NR2B antagonists in rodents (CP-101,606, Ro25-6981, and Merck20j), plus plasma levels achieved in Preskorn et al., brain exposures for the test compounds were consistent with “anticipated levels” required for efficacy.

Series [2] has as its system Salmonella typhimurium TA98, TA102. The series can be described thus: Ames test for genotoxicity. As to conditions: 8 conc., 1.5-5000 μg/plate; +/− S9 both; strains TA98, TA102. How it is done:
The Ames test determines the ability of a compound to reverse an introduced mutation in two strains of Salmonella typhimurium (selected from TA98, TA100, TA15345, TA1537, and TA102). (See for example Maron, D. M. and Ames, B. N., Mutat. Res., 1983, 113, 173-215.) Compounds were tested at eight dose levels 1.5, 5, 15, 50, 150, 500, 1500, and 5000 μg/plate in both the presence and absence of S-9 microsomal fraction in two bacterial strains (TA98, TA102). After incubation at 37° the number of revertant colonies was compared with the number of spontaneous revertants on negative (vehicle) plates. Positive control plates containing a known mutagen active in each of the strains in the presence of S-9 extract (2-aminoanthracene at 1-5 ug/plate) were also run.

Another series relates to CD1 mice. Nature of the series: Forced swim model (depression result). Format: in vivo. As to conditions: i.p. How it is done:
CD1 mice were adminstered a compounds shown in Table 11, desipramine, Ro 25-6981 or a control vehicle and subjected to a forced swim test. All compounds were administered as intraperitoneal injections. Animals were placed into a beaker (15 cm diameter) of water held at 25° C. with a depth of 15 cm 30 min after compound administration. Behavior was videotaped for 6 minutes from the side of the beaker and scored subsequently for struggling behavior. Results were analyzed by one-way ANOVA and post-hoc Bonferroni tests. Total immobility time refers to the time that the animal spends floating or engaged in minimal activity to keep afloat for at least 3 seconds. Subtle movements of feet, tail or head required to maintain the eyes, ears, and nose above the surface of the water were excluded as immobility. The video-tapes were scored by investigators unfamiliar with the treatments of the mice.
For the data in FIG. 1, test compounds were tested at a dose of 10 mg/ kg. Desipramine was tested at a dose of 20 mg/kg. Ro 25-6981 was tested at a dose of 5 mg/kg. Number of CD1 mice tested per groups was 8-10. ANOVA: F(11,98)=3.638, p<0.01. *=p<0.05 compared to vehicle. +=p<0.05 compared to desipramine.
For the data in FIG. 2, compounds NP10075 and NP10076 were tested at doses of 5 mg/kg, 7.5 mg/kg and 10 mg/kg; desipramine was tested at a dose of 20 mg/kg; and Ro 25-6981 was tested at a dose of 5 mg/kg. Number of CD1 mice tested per group was 8-10. *=p<0.05, **=p<0.01 ANOVA, post-hoc Bonferroni from control.

A further series deals with mice. Nature of the series: Open field activity test. Format: in vivo. As to conditions: 10 mg/kg, intraperitoneal. As for the experimental part:
Spontaneous activity was evaluated in an automated Omnitech Digiscan apparatus (AccuScan Instruments, Columbus, Ohio). Animals were given vehicle, imipramine, or a dose of a test compound. All compounds were administered as intraperitoneal injections. Activity was summated at 5 minute intervals over the 90 min period of testing. At 60 minutes, the mice were injected with 10 mg/kg NP10075, 10 mg/kg NP10076 or a vehicle. Locomotion was measured in terms of the total distance traveled (horizontal activity). Results were analyzed by one-way ANOVA and post-hoc Bonferroni tests.

The target in series [3] is NMDA receptor (NR1 + NR2 subunits) (Rattus norvegicus, UniProt P35439+Q00960). Nature of the series: Two electrode voltage clamp recording from Xenopus laevis oocytes (pH dependence of NMDA antagonism). Format: cell-based. As to conditions: Table 27; pH not stated; read-out: Rat IC50. Put shortly: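 Oocytes expressing rat NR1/NR2 were held at −40 mV at 23 °C, 2–7 days after injection, in Ba²⁺ saline with pH adjusted and 10 µM EDTA. Compounds at 4–8 concentrations were co-applied with 50 µM glutamate and 30 µM glycine. Percent of the initial response was leak-corrected, pooled over 3–6 frogs and fitted with a Hill equation (minimum ≥0) to give IC50.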
(Two-electrode voltage clamp is typically applied to oocytes expressing channels or transporters.)

Where [4] appears, read: plasma (free, unbound), mice 10 mg/kg i.p., 30 minute, based on % free fraction measured in protein binding study, read-out: Free Plasma.
The mark [5] stands for this setting: plasma (free, unbound), mice 10 mg/kg i.p., 30 minute, based on % free fraction, read-out: Free Plasma.
[6] abbreviates: plasma, mice dosed 10 mg/kg, i.p., 30 minute time point, LC-MS/MS, read-out: Plasma.

Each structure is given as a SMILES string. Where two headings read alike, the source gives them in different places.

Sequence of NMDA receptor (NR1 + NR2 subunits) (Q00960 27-1482, other chains not shown): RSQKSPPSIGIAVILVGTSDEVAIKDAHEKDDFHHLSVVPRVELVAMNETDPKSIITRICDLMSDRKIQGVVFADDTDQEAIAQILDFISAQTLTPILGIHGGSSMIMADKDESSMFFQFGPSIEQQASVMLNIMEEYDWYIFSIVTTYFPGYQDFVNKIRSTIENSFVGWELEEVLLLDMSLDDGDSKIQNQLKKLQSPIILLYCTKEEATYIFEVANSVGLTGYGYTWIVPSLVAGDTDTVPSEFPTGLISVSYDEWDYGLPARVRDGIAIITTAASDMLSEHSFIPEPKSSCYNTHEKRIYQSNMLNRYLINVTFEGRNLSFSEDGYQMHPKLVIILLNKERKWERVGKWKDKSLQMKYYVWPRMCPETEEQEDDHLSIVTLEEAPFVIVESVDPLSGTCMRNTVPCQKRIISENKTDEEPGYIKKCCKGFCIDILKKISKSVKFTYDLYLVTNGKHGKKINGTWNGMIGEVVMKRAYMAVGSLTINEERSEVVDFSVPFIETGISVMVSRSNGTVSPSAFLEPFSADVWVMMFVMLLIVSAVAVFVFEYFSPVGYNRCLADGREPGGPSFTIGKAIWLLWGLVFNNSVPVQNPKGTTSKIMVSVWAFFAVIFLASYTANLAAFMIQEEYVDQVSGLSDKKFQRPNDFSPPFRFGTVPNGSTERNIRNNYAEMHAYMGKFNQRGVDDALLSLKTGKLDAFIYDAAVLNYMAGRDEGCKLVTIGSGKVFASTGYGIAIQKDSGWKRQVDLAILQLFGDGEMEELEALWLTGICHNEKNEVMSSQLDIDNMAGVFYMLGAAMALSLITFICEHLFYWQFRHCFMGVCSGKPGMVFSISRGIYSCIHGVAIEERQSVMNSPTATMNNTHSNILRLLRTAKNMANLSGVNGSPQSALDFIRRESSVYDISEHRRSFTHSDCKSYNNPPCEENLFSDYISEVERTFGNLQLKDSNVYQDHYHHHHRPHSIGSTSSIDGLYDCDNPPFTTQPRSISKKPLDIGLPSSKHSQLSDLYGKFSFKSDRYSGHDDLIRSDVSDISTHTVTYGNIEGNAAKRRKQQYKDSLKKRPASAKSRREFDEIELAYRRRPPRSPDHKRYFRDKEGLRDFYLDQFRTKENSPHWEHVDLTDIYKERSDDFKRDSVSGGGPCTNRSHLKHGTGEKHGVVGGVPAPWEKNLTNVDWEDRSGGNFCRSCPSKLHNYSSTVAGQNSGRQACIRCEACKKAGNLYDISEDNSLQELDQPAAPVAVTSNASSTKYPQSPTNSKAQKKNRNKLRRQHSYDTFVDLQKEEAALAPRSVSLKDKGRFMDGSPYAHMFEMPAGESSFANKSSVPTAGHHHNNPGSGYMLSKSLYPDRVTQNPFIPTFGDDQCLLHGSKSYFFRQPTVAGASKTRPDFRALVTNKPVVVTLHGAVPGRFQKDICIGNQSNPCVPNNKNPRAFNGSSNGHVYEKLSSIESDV

For `NC(=O)Nc1ccc(OC[C@@H](O)CN2CCN(c3ccc(Cl)cc3)CC2)cc1` [NP10075], in series [1] (mice 10 mg/kg i.p.), the concentration at 30 min was 130 nM. The concentration at 30 minute in series [1] (setting [4]) was determined as 220 ng/mL; in series [1] (setting [5]), 542 nM; in series [1] (setting [6]), 3140 ng/mL. Besides, in series [2], the “Genotoxicity (Ames) Result” value is “No positive”. For the same molecule, the “Depression Result” value in the series with CD1 mice is “active”. Further, the “mouse open field activity (total distance traveled)” value with mice is reported as “Neither NP10075 or NP10076 altered mouse open field activity”. The IC50 in series [3] was 108 nM.
For the molecule `O=C1N(C[C@H](O)COc2ccc(O)cc2)CCN1c1ccc(Cl)cc1` [NP10076], the concentration at 30 min in series [1] (mice 10 mg/kg i.p.) is 64 nM. For the same molecule, the concentration at 30 minute amounted to 34 ng/mL in series [1] (setting [4]), 94 nM in series [1] (setting [5]) and 377 ng/mL in series [1] (setting [6]). Further, the “Depression Result” value in the series on CD1 mice is given as “active”. Besides, the IC50 in series [3] came out at 72 nM.
On to `O=C(COc1ccc2[nH]c(=O)oc2c1)N1CCN(c2ccc(Cl)c(Cl)c2)CC1` [NP10068], for which the concentration at 30 min in series [1] (mice 10 mg/kg i.p.) is 48 nM. Moreover, the concentration at 30 minute in series [1] (setting [4]) came to 61 ng/mL; in series [1] (setting [5]) it was 145 nM; in series [1] (setting [6]) it was 679 ng/mL. Moreover, the “Depression Result” value in the series with CD1 mice is given as “active”. Further, in series [3], the IC50 came to 60 nM.

As a reminder, the IC50 is the midpoint of a concentration-inhibition curve.
